Columns and labels:
MMP-9 (Gel-B) = target: T1, MMP-9 (Gel-B) (Homo sapiens, UniProt P14780); test: Ki determination with fluorogenic synthetic substrates, recombinant MMP-9; type: biochemical; settings: for Ki: Tris/50 mM HCl buffer, pH 6.8, 10 mM CaCl2, 25° C., read-out: affinity constant Ki, MMP-9 Gel-B
T1 construct: made in house; host or cells: E. coli
Description: (§1) The MMPs used were produced in recombinant form, in an E. coli expression system, and then purified using different types of chromatographies. Apart from stromelysin-3 (MMP-11), the MMPs produces correspond to human sequences. The Stromelysin-3 used in this study corresponds to the murine form.
(§2) The activity of each MMP was determined using two fluorogenic synthetic substrates. The cutoff of said substrates, which generates a fluorescent signal proportional to the quantity of split substrate, enables a precise determination of the kinetic parameters. The affinity constants Ki were calculated using the equation of Horowitz et al, Proc. Natl. Acad. Sci. USA, 1987, 84, p. 6654-6658 [14], accounting for the dependency of the percentage of inhibition measured experimentally according to the concentration of inhibitor, as a function of the enzyme and substrate concentration.
(§3) The experiments for conducted in a Tris/50 mM HCl buffer, pH 6.8, 10 mM CaCl2, 25° C.

[1] = target: T2, MMP-11 (stromelysin-3, mST3) (Mus musculus, UniProt Q02853); test: Ki determination with fluorogenic synthetic substrates, recombinant MMP-11; type: biochemical, murine; settings: for Ki: Tris/50 mM HCl buffer, pH 6.8, 10 mM CaCl2, 25° C., read-out: affinity constant Ki, MMP-11 mST3
T2 construct: made in house; host or cells: E. coli
T2 sequence (Q02853 102-492): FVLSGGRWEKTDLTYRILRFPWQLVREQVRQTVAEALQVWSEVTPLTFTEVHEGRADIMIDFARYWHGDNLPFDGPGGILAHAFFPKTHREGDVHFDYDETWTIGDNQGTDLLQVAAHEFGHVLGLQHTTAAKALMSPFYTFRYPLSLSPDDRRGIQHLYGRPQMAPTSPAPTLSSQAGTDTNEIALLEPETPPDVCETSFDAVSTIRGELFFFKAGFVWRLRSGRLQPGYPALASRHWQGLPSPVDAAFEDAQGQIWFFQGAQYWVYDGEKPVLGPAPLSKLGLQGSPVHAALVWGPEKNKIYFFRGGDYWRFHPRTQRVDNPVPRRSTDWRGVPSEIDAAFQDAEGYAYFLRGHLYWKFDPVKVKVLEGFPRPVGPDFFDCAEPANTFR
Description: as §1, §2, §3

MMP-14 (MT1-MMP) = target: T3, MMP-14 (MT1-MMP) (Homo sapiens, UniProt P50281); test: Ki determination with fluorogenic synthetic substrates, recombinant MMP-14; type: biochemical; settings: for Ki: Tris/50 mM HCl buffer, pH 6.8, 10 mM CaCl2, 25° C., read-out: affinity constant Ki, MMP-14 MT1-MMP
T3 construct: made in house; host or cells: E. coli
Description: as §1, §2, §3

MMP-8 (HNC) = target: T4, MMP-8 (HNC) (Homo sapiens, UniProt P22894); test: Ki determination with fluorogenic synthetic substrates, recombinant MMP-8; type: biochemical; settings: for Ki: Tris/50 mM HCl buffer, pH 6.8, 10 mM CaCl2, 25° C., read-out: affinity constant Ki, MMP-8 HNC
T4 construct: made in house; host or cells: E. coli
Description: as §1, §2, §3

MMP-2 (Gel-A) = target: T5, MMP-2 (Gel-A) (Homo sapiens, UniProt P08253); test: Ki determination with fluorogenic synthetic substrates, recombinant MMP-2; type: biochemical; settings: for Ki: Tris/50 mM HCl buffer, pH 6.8, 10 mM CaCl2, 25° C., read-out: affinity constant Ki, MMP-2 Gel-A
T5 construct: made in house; host or cells: E. coli
T5 sequence (P08253 110-660): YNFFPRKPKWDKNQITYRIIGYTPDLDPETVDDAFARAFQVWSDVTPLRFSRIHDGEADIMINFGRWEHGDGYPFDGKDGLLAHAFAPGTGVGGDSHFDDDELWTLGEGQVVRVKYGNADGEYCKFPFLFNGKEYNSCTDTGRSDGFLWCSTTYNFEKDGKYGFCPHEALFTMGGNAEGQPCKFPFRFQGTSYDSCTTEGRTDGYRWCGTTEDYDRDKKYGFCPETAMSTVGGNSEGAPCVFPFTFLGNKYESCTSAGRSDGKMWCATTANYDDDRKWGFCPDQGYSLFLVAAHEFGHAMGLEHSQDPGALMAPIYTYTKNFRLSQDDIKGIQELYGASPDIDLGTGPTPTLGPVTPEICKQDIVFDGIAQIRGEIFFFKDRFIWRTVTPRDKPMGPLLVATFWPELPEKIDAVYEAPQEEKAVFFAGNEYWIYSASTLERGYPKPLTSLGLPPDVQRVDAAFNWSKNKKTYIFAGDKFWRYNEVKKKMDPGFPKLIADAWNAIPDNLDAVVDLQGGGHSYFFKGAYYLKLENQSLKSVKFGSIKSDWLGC
Description: as §1, §2, §3

MMP-1 (HFC) = target: T6, MMP-1 (HFC) (Homo sapiens, UniProt P03956); test: Ki determination with fluorogenic synthetic substrates, recombinant MMP-1; type: biochemical; settings: for inhibition at 1 µM: @ 1 μM inhibitor, read-out: percentage of inhibition, MMP-1
T6 construct: made in house; host or cells: E. coli
T6 sequence (P03956 100-469): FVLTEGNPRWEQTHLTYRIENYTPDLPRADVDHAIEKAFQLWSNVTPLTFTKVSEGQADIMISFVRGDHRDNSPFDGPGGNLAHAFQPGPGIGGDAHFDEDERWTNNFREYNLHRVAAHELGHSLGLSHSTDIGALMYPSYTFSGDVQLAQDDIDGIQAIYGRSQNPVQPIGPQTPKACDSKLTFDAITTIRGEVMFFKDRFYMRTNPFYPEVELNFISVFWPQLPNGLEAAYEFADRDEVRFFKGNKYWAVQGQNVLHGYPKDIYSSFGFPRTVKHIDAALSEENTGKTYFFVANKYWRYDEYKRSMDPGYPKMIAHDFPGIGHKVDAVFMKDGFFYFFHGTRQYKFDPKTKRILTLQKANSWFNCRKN
Description: as §1, §2, §3

MMP-7 (Matrilysin) = target: T7, MMP-7 (Matrilysin) (Homo sapiens, UniProt P09237); test: Ki determination with fluorogenic synthetic substrates, recombinant MMP-7; type: biochemical; settings: for inhibition at 1 µM: @ 1 μM inhibitor, read-out: percentage of inhibition, MMP-7
T7 construct: made in house; host or cells: E. coli
T7 sequence (P09237 95-267): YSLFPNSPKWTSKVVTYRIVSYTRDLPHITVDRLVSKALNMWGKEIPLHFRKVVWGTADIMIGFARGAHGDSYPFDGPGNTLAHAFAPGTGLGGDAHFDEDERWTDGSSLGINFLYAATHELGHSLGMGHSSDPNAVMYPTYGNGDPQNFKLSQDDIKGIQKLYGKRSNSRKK
Description: as §1, §2, §3

T1 sequence (P14780 94-707): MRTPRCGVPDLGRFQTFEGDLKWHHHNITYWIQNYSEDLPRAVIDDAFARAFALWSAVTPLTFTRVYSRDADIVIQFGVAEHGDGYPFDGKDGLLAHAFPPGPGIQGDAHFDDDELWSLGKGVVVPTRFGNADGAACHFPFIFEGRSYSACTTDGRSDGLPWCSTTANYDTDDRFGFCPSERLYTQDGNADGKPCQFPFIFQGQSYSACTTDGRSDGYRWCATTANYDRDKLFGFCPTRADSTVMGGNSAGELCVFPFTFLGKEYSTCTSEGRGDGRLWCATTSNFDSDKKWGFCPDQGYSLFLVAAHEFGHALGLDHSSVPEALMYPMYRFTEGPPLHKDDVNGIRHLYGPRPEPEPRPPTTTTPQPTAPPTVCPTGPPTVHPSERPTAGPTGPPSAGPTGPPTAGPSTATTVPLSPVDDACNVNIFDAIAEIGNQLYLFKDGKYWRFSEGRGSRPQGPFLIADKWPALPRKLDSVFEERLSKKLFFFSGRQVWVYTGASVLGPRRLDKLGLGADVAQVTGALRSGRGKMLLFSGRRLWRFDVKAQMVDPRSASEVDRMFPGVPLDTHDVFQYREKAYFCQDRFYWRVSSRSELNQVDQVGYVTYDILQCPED
T4 sequence (P22894 101-467): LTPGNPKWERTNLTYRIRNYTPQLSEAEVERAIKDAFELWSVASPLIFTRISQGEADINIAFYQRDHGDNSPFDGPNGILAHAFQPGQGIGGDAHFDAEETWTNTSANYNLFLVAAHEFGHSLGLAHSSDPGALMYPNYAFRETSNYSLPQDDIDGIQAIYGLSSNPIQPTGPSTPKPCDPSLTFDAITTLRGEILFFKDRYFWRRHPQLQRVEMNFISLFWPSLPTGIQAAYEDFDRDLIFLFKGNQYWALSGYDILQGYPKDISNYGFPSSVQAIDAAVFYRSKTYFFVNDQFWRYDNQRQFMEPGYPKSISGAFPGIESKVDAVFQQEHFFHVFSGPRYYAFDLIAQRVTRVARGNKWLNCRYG

| Structure (SMILES) | Ki (MMP-9 (Gel-B)) [nM] | Ki [1] [nM] | Ki (MMP-14 (MT1-MMP)) [nM] | Ki (MMP-8 (HNC)) [nM] | Ki (MMP-2 (Gel-A)) [nM] | inhibition at 1 µM (MMP-1 (HFC)) [%] | inhibition at 1 µM (MMP-7 (Matrilysin)) [%] | also measured |
| --- | --- | --- | --- | --- | --- | --- | --- | --- |
| NC(=O)C(Cc1c[nH]c2ccccc12)NC(=O)C(CCCc1ccccc1)CP(=O)(O)C(Cc1ccccc1)NC(=O)CNc1cc(Cl)ccc1O (stereo not drawn) [Compound 29] | 34 | 10 | 63 | 7.5 | 30 | 55 | 48 |  |
| NC(=O)C(Cc1c[nH]c2ccccc12)NC(=O)C(CCCc1ccccc1)CP(=O)(O)C(Cc1ccccc1)NC(=O)COCc1ccccc1 (stereo not drawn) [Compound 26] | 10 | 5 | 40 | 2.5 | 8 | 28 | 33 |  |
| NC(=O)[C@@H](Cc1c[nH]c2ccccc12)NC(=O)C(CCCc1ccccc1)CP(=O)(O)C(Cc1ccccc1)NC(=O)OCc1ccccc1 (stereo partly drawn) [Compound 23] |  |  |  |  |  |  |  | percentage of inhibition, MMP-9 (MMP-9 (Gel-B); @ 2 mM inhibitor): 14% @ 2 mM; percentage of inhibition, MMP-11 ([1]; @ 1 mM inhibitor): 1% @ 1 mM; percentage of inhibition, MMP-14 (MMP-14 (MT1-MMP); @ 10 mM inhibitor): 10% @ 10 mM; percentage of inhibition, MMP-8 (MMP-8 (HNC); @ 1 mM inhibitor): 2% @ 1 mM; percentage of inhibition, MMP-2 (MMP-2 (Gel-A); @ 2 mM inhibitor): 6% @ 2 mM; percentage of inhibition, MMP-1 (MMP-1 (HFC); @ 10 mM inhibitor): 3% @ 10 mM; percentage of inhibition, MMP-7 (MMP-7 (Matrilysin); @ 50 mM inhibitor): 18% @ 50 mM |
| NC(=O)C(Cc1c[nH]c2ccccc12)NC(=O)C(CCCc1ccccc1)CP(=O)(O)C(Cc1ccccc1)NC(=O)OCc1ccccc1 (single isomer, unassigned) [Compound 15 S II] | 250 | 50 | 2290 | 460 | 365 |  |  | percentage of inhibition, MMP-1 (MMP-1 (HFC); @ 2 mM inhibitor, listed as S II): 6% @ 2 mM; percentage of inhibition, MMP-7 (MMP-7 (Matrilysin); @ 20 mM inhibitor, listed as S II): 29% @ 20 mM |
| NC(=O)C(Cc1c[nH]c2ccccc12)NC(=O)C(CCCc1ccccc1)CP(=O)(O)C(Cc1ccccc1)NC(=O)c1cc2c(Cl)cc(Cl)cc2[nH]1 (stereo not drawn) [Compound 31] | 7 | 0.9 | 32 | 5 | 24 |  |  | inhibitory power on MMP-11, in words [1]: very powerful inhibitor; Ki (MMP-1 (HFC); Tris/50 mM HCl buffer, pH 6.8, 10 mM CaCl2, 25° C., read-out: affinity constant Ki, MMP-1 HFC): 36 nM; Ki (MMP-7 (Matrilysin); Tris/50 mM HCl buffer, pH 6.8, 10 mM CaCl2, 25° C., read-out: affinity constant Ki, MMP-7 Matrilysin): 117 nM |

Further lines, with some results ahead:

| Ki (MMP-9 (Gel-B)) [nM] | Ki [1] [nM] | Ki (MMP-14 (MT1-MMP)) [nM] | Ki (MMP-8 (HNC)) [nM] | Ki (MMP-2 (Gel-A)) [nM] | inhibition at 1 µM (MMP-1 (HFC)) [%] | inhibition at 1 µM (MMP-7 (Matrilysin)) [%] | Structure (SMILES) | also measured |
| --- | --- | --- | --- | --- | --- | --- | --- | --- |
| 78 | 9 | 385 | 65 | 42 |  |  | NC(=O)C(Cc1c[nH]c2ccccc12)NC(=O)C(CCCc1ccccc1)CP(=O)(O)C(Cc1ccccc1)NC(=O)OCc1ccccc1 (single isomer, unassigned) [Compound 15 R II] | percentage of inhibition, MMP-1 (MMP-1 (HFC); @ 2 mM inhibitor, listed as R II): 16% @ 2 mM; percentage of inhibition, MMP-7 (MMP-7 (Matrilysin); @ 20 mM inhibitor, listed as R II): 34% @ 20 mM |
| 33 | 5 | 135 | 16 | 45 |  |  | NC(=O)C(Cc1c[nH]c2ccccc12)NC(=O)C(CCCc1ccccc1)CP(=O)(O)C(Cc1ccccc1)NC(=O)OCc1ccccc1 (single isomer, unassigned) [Compound 15 S I] | percentage of inhibition, MMP-1 (MMP-1 (HFC); @ 2 mM inhibitor, listed as S I): 17% @ 2 mM; percentage of inhibition, MMP-7 (MMP-7 (Matrilysin); @ 20 mM inhibitor, listed as S I): 59% @ 20 mM |
| 10 | 8 | 41 | 5.5 | 11 | 24 | 18 | CC(NC(=O)OCc1ccccc1)C(=O)NC(Cc1ccccc1)P(=O)(O)CC(CCCc1ccccc1)C(=O)NC(Cc1c[nH]c2ccccc12)C(N)=O (stereo not drawn) [Compound 34] |  |

Reference: patent US6630501B1, “Phosphinic pseudo-peptides that may be used as matrix zinc metalloprotease inhibitors” (Commissariat a l'energie Atomique, priority 1999, dated 2003)
